Assay results: ChEMBL document CHEMBL1201862, “PubChem BioAssay data set” (2004)
The source made the active and inactive calls.

Key:
cells [1] = type: functional, cell-based
cells [2] = type: functional, cell-based; remark: listed apart in the source
[3] = biological target: T1, Trace amine-associated receptor 1 (Homo sapiens, UniProt Q96RJ0); experiment: Counterscreen for agonists of the human trace amine associated receptor 1 (hTAAR1): Fluorescence-based cell-based high throughput dose response assay to identify hTAAR1 agonist that also desensitize TAAR1 receptor response.; type: functional
T1 sequence (Q96RJ0 whole entry): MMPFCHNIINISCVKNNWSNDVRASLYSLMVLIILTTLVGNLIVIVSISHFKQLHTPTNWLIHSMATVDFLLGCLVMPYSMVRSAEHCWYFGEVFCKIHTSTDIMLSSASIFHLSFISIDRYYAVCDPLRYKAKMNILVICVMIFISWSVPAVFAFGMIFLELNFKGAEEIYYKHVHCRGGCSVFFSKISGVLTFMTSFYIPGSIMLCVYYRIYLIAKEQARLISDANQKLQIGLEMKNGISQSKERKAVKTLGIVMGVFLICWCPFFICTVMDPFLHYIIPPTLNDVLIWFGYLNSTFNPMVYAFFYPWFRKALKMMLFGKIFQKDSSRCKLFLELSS

[4] = biological target: T1, Trace amine-associated receptor 1; experiment: Fluorescence-based cell-based high throughput dose response assay to identify agonists of the human trace amine associated receptor 1 (TAAR1).; type: functional
[5] = biological target: RNA-editing ligase 1, mitochondrial (Trypanosoma brucei brucei, UniProt P86926); experiment: TbREL1 ligase inhibitors, dose response, biochemical, fluorescence, Trypanosoma brucei (AID 1117295); type: functional
RNA-editing ligase 1, mitochondrial, sequence (P86926 whole entry): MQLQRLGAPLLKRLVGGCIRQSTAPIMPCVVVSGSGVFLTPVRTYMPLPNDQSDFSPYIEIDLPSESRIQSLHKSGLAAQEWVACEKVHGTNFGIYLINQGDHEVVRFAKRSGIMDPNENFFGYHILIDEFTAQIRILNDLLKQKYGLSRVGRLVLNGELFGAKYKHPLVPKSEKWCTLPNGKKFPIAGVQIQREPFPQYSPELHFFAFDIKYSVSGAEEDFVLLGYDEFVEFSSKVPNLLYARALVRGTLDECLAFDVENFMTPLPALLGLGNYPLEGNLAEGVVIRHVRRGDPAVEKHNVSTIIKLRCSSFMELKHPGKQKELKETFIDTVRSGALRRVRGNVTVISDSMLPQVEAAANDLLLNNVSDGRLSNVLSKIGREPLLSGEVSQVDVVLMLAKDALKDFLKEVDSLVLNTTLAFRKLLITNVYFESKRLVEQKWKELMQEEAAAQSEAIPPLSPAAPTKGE

Kallikrein-7 = Kallikrein-7 (Homo sapiens, UniProt P49862); experiment: Fluorescence Intensity-based biochemical primary high throughput dose response assay to identify activators of kallikrein-7 (K7) zymogen.
Kallikrein-7, sequence (P49862 whole entry): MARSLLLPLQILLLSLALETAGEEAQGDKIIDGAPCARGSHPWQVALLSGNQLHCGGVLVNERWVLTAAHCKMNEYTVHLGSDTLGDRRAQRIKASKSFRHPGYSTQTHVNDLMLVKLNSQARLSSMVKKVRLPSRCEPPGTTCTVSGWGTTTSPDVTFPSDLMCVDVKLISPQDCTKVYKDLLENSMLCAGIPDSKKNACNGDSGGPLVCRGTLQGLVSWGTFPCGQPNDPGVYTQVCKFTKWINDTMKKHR

Albumin = Albumin (Bos taurus, UniProt P02769); experiment: Counterscreen for inhibitors of T-cell receptor (TCR)-CD3 interaction: Fluorescence-based biochemical high throughput dose response assay to identify inhibitors of T-cell receptor (TCR)-CD3 interaction using a TAMRA-labeled BSA probe.; type: functional
Albumin, sequence (P02769 whole entry): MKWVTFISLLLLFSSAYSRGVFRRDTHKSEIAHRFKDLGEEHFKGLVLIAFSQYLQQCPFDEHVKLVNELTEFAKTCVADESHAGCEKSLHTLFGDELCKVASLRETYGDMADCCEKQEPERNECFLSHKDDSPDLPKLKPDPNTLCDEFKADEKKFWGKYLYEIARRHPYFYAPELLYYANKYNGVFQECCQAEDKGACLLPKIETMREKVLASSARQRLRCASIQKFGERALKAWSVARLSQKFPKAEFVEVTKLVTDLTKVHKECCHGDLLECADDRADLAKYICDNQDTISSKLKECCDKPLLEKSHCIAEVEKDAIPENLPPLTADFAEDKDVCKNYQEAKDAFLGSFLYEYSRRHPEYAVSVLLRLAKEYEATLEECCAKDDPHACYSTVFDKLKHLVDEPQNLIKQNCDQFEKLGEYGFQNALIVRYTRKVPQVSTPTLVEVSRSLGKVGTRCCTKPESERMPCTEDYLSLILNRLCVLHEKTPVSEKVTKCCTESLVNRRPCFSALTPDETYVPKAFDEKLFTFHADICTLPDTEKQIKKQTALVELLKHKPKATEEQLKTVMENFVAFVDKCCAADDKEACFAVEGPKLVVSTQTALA

[6] = CFTR ΔF508 corrector activity in bronchial cells, dose response, human bronchial epithelial cells, plate reader, cherry-pick, two tests (AID 743267); type: functional, cell-based
[7] = Luminescence Cell-Based Dose Retest to Confirm Inhibitors of Cancer Stem Cells. [Related pubchem assays (depositor defined):AID2717, AID2721]; type: functional; conditions: Homo sapiens
cells [8] = experiment: cells
[9] = biological target: Oxysterols receptor LXR-beta (Homo sapiens, UniProt P55055); type: functional, cell-based;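 note: Cell-based luminescence dose-response assay of agonist activity at LXR, run as a confirmatory counterscreen to a daf-12 agonist screen; HEK293 cells with Gal4-LXR fusion and GAL4-driven luciferase reporter; agonist potency from rising luciferase signal of a Gal4-LXR reporter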
Oxysterols receptor LXR-beta, sequence (P55055 whole entry, the tested form may be a part): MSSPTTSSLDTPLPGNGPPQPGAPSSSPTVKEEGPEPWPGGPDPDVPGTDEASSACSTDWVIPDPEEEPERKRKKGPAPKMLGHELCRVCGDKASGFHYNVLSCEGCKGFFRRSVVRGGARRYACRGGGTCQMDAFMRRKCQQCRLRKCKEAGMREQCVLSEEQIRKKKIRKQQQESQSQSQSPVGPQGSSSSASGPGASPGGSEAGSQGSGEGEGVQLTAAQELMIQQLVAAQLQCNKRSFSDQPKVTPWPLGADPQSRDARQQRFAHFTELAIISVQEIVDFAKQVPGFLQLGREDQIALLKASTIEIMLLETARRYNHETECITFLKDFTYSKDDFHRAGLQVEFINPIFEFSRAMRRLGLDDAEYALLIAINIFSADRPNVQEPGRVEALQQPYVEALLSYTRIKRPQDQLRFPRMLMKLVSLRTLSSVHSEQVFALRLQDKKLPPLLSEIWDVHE

[10] = IGROV1 ovarian cancer cell cytotoxicity, dose response, PAX8 inhibitor project, plate reader, dry powder samples (AID 743043); type: functional, cell-based; conditions: IGROV-1
[11] = cytotoxicity in OVCAR8 ovarian cancer cells, dose response, PAX8 project, cell-based, plate reader, dry powder samples (AID 743197); type: functional; conditions: OVCAR-8
[12] = NIH:OVCAR-3 ovarian cancer cell cytotoxicity, dose response, PAX8 inhibitor project, plate reader, dry powder samples (AID 743044); type: functional, cell-based
Paired box protein Pax-8 = Paired box protein Pax-8 (Homo sapiens, UniProt Q06710); experiment: inhibitors of PAX8-driven TPO luciferase reporter, dose response, RMG-I cells, cherry-pick (AID 687027); type: functional, cell-based;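 note: luciferase reporter driven by Pax8 target thyroperoxidase promoter measured by SteadyGlo luminescence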
Paired box protein Pax-8, sequence (Q06710 whole entry): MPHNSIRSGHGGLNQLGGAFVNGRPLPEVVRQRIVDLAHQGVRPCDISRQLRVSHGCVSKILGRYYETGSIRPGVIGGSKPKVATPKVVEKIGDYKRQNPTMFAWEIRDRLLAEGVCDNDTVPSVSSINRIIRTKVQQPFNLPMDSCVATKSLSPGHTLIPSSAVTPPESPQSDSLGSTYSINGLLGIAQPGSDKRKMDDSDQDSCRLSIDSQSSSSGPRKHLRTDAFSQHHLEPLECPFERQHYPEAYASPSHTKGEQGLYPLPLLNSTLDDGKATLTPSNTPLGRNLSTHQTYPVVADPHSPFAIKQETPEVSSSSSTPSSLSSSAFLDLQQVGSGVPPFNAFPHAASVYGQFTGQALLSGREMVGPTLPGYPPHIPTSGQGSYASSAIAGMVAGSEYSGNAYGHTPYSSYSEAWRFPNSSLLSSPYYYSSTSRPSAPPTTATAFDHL

[13] = IOSE-T80 ovarian epithelial cell cytotoxicity, dose response, cytotoxicity control for PAX8 inhibitor project, plate reader, dry powder samples (AID 743045); type: functional, cell-based
[14] = biological target: T2, Nuclear receptor subfamily 0 group B member 1 (Homo sapiens, UniProt P51843); experiment: Luminescence-based cell-based high throughput dose response assay for inhibitors of the orphan nuclear receptor subfamily 0, group B, member 1 (DAX1; NR0B1). [Related pubchem assays (depositor defined):AID504766, AID504790]; type: functional
T2 sequence (P51843 whole entry): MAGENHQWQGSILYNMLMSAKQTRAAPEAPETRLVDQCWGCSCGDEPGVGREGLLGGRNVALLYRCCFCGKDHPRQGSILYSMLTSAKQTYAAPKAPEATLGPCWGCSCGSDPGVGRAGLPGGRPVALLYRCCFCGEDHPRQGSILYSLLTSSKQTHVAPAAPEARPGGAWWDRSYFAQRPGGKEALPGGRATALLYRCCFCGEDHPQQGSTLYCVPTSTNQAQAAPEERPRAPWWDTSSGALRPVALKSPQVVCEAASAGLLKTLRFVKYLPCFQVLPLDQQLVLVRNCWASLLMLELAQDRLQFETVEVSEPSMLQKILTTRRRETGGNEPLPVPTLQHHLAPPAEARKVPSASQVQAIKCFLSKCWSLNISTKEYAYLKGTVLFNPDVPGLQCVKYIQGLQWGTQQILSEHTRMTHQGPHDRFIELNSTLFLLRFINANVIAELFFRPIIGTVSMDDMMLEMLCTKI

[15] = biological target: FAD-linked sulfhydryl oxidase ALR (Homo sapiens, UniProt P55789); experiment: inhibitors of human ALR sulfhydryl oxidase, dose response, biochemical, H2O2 detection, luminescence, cherry-pick (AID 493248)
FAD-linked sulfhydryl oxidase ALR, sequence (P55789 whole entry): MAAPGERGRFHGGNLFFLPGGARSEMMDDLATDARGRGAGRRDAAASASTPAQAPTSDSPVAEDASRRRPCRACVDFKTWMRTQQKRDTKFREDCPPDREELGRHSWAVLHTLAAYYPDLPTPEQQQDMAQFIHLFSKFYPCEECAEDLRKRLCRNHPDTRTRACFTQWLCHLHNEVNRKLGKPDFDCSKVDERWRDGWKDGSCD

HEK293 = experiment: cells; type: functional, cell-based; conditions: Homo sapiens
[16] = A375 melanoma cell cytotoxicity, dose response, counter-screen for MITF inhibitor project, CellTiter-Glo luminescence, dry powder, set 2 (AID 624489); type: functional, cell-based; conditions: A-375;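 note: actives are compounds lowering A375 viability meaning general cytotoxicity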
[17] = A375 melanoma cell viability loss, dose response, counter-screen for MITF inhibitor project, CellTiter-Glo luminescence, dry powder, set 4 (AID 624364); type: functional, cell-based; conditions: A-375;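 note: A375 melanoma cells are MITF independent so this is a counter screen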

With `OC(COC(c1ccc(F)cc1)c1ccc(F)cc1)CN1CCCC(C(F)(F)F)C1` (centres undefined) the EC50 (cells [1]) was > 29.9 µM (inactive), the IC50 (cells [2]) was > 29.9 µM (inactive) and the IC50 [3] was 8.46 µM (active). The EC50 [4] was 2.52 µM (active).
In the case of `NS(=O)(=O)c1ccc(CCNC(=O)C2CCC(CNS(=O)(=O)c3ccc(Br)s3)CC2)cc1` (centres undefined), the EC50 (cells [1]) is reported as > 29.9 µM (inactive), the IC50 (cells [2]) is reported as > 29.9 µM (inactive) and the IC50 [3] is reported as 1.16 µM (active). For the same compound, the EC50 [4] was > 29.9 µM (inactive).
For `Cc1cc(C)c(OCCCNCc2ccccc2)c(Br)c1`, the IC50 [5] was > 96.6 µM (inactive).
For `CN1C(=O)c2ccccc2N(C)C1c1ccc2c(c1)OCO2` (centres undefined), the EC50 (Kallikrein-7) was > 69.5 µM (inactive).
In the case of `O=C(CCCN1C(=O)/C(=C/c2cccs2)SC1=S)NNC(=O)c1ccccc1O`, the IC50 (Albumin) is reported as > 94.1 µM (inactive).
For `CN(C)CCn1c2ccccc2c2nc3ccc([N+](=O)[O-])cc3cc21`, the AC50 [6] was 55.7 µM (active) and the AC50 [7] was 2.35 µM (active).
With `NS(=O)(=O)c1ccc(S(=O)(=O)N(CCc2ccccc2)Cc2ccccn2)cc1` the AC50 [6] was < 0.0235 µM (active).
For `Clc1ccccc1NN=Cc1ccccn1`, the EC50 (cells [8]) was > 67.6 µM (inactive) and the EC50 [9] was > 67.6 µM (inactive).
With `C[C@@H]1CCCCO[C@H](CN(C)C(=O)Nc2ccc(C(F)(F)F)cc2)[C@@H](C)CN([C@@H](C)CO)C(=O)c2cc(NS(=O)(=O)c3ccc(Cl)cc3)ccc2O1` the AC50 [10] was 46.1 µM (active), the AC50 [11] was 36.2 µM (active) and the AC50 [12] was 29.1 µM (active). The AC50 (Paired box protein Pax-8) was 3.44 µM (active).
With `COc1ccc(-c2ccc3c(c2)[C@H]2[C@H](CCN2S(=O)(=O)c2ccc(OC)cc2)[C@@H](CO)N3C)cc1` the AC50 [11] was 34.7 µM (active), the AC50 [13] was 38.1 µM (active) and the AC50 [12] was 15.6 µM (active). The AC50 (Paired box protein Pax-8) was 9.39 µM (active).
In the case of `Cc1ccc(N/N=C(\C#N)C(=N)N2CCCCC2)cc1`, the IC50 [14] is reported as > 67.5 µM (inactive), the EC50 (cells [8]) is reported as > 67.6 µM (inactive) and the AC50 [15] is reported as 0.228 µM (active). For the same compound, the IC50 (HEK293) was > 0.278 µM (active) and the EC50 [9] was > 67.6 µM (inactive).
With `C=CCNC1=C(N2CCCCC2)C(=O)c2ccccc2C1=O` the AC50 [16] was 5.82 µM (active) and the AC50 [17] was 29.1 µM (active).
For `COc1cccc2cccc(/C=N/n3cnnc3)c12`, the EC50 (Kallikrein-7) was > 69.5 µM (inactive).
With `COc1cccc(-c2cc(C(=O)NC3=C(Cl)C(=O)c4ccccc4C3=O)ccc2OC)c1` the AC50 [16] was > 70 µM (inactive) and the AC50 [17] was > 70 µM (inactive).
